In patent US20200306213A1, “COMPOUNDS FOR USE IN THE TREATMENT OR PREVENTION OF LOWE SYNDROME OR DENT DISEASE AND METHODS THEREFOR” (Université de Montréal, priority 2017, published 2020):

Assays:
[1] = tested on: Ocrl−/− mutant zebrafish embryos; assay: Pronephric uptake of Alexa 488-10 kDa dextran in Ocrl−/− mutant zebrafish embryos; assay type: in vivo; settings: OCRL1 mutant embryos at 72 hpf, 5 μM in the water, assessed 2 hours after tracer injection
Experimental: (§1) Finally, to test whether activation of PLC rescues phenotypes induced by loss of OCRL1 in an in vivo context, a previously established Ocrl−/− mutant zebrafish model for Lowe syndrome was used (Ramirez I. B. et al., 2012, Hum. Mol. Genet., 21, 1744-59, Oltrabella F., et al., 2015, PLoS Genetics, 11(4):e1005058). Wild type fish were of AB background.
(§2) Lysine-fixable 10 kDa dextran labelled with Alexa 488 (Molecular Probes) was prepared in PBS at 2 μg/μl final concentration. Zebrafish embryos at 72 hpf (hours post fertilisation) were treated for 60 minutes with DMSO control (0.005% DMSO), 5 μM m-3M3FBS or 5 μM o-3M3FBS by addition to the water. Embryos were then anaesthetised with 0.2 mg/ml MS222 (Sigma) in chorion water, and the tracer Alexa 488-10 kDa dextran (green) was injected into the common cardinal vein using a glass micropipette PLI-90 Pico-Injector (Harvard Apparatus). Embryos were returned to the respective drug treatments and incubated at 29° C. Pronephric accumulation was assessed 2 hours after injection on whole mount embryos using a fluorescent dissecting stereomicroscope (Leica MZ10F). Statistical analysis was performed using the Pearson's chi-squared test with Prism software (Prism Software Corporation).

[2] = tested on: normal renal epithelial cells from a donor not mutated in OCRL1; assay: Abscission assay (time-lapse) in normal renal epithelial cells; assay type: cell-based, human; settings: 25 μM, 60 hours time-lapse recording
Experimental: Further tests were carried out using human cellular models for the Lowe syndrome. […] In this experiment, normal renal epithelial cells from a donor not mutated in OCRL1 and renal epithelial cells from a Lowe syndrome patient were grown in DMEM/F12 (Gibco BRL) supplemented with 10% fetal bovine serum, ITS supplemented, 4 pg/mL triiodothyronine, 36 ng/mL dexamethasone, 10 ng/ml EGF, 100 U/mL penicillin/streptomycin and 2 mM glutamine at 33° C. […] Cell divisions were recorded by time-lapse microscopy using a Nikon Eclipse Ti Inverted Microscope. The curves represent the cumulative distribution of the abscission times in the indicated cell populations (see FIG. 3). […] Comparatively, abscission delay observed in Lowe patient cells was not corrected by treatment with o-3M3FBS.

[3] = tested on: OCRL1-depleted HeLa cells; assay: Abscission assay (time-lapse) in OCRL1-depleted HeLa cells; assay type: cell-based, human; settings: OCRL1 siRNA-depleted HeLa cells, 25 μM, 60 hours time-lapse recording, compared to DMSO alone
Experimental: (§3) Further tests were carried out using human cellular models for the Lowe syndrome.
Human HeLa epithelial cells were grown in DMEM medium (Gibco BRL) supplemented with 10% fetal bovine serum, 100 U/ml penicillin/streptomycin and 2 mM glutamine at 37° C. HeLa cells were depleted in OCRL1 by transfecting control siRNAs (5′-CGUACGCGGAAUACUUCGA-3′) or OCRL1 RNAi (5′-GAAAGGAUCAGUGUCGAUA-3′) specific siRNAs for 72 h before imaging using HiPerFect reagents (Qiagen).
(§4) Cell divisions were recorded by time-lapse microscopy using a Nikon Eclipse Ti Inverted Microscope. The curves represent the cumulative distribution of the abscission times in the indicated cell populations (see FIG. 5).

[4] = tested on: wildtype zebrafish embryos; assay: Pronephric uptake of Alexa 488-10 kDa dextran in wildtype zebrafish embryos; assay type: in vivo; settings: wildtype embryos at 72 hpf, 5 μM in the water, assessed 2 hours after tracer injection
Experimental: as §1, §2

[5] = tested on: renal epithelial cells from a Lowe syndrome patient; assay: Abscission assay (time-lapse) in renal epithelial cells from a Lowe syndrome patient; assay type: cell-based, human; settings: 25 μM, 60 hours time-lapse recording
Experimental: as §3
In this experiment, normal renal epithelial cells from a donor not mutated in OCRL1 and renal epithelial cells from a Lowe syndrome patient were grown in DMEM/F12 (Gibco BRL) supplemented with 10% fetal bovine serum, ITS supplemented, 4 pg/mL triiodothyronine, 36 ng/mL dexamethasone, 10 ng/ml EGF, 100 U/mL penicillin/streptomycin and 2 mM glutamine at 33° C.
as §4, with “3). […] Comparatively, abscission delay observed in Lowe patient cells was not corrected by treatment with o-3M3FBS.” for “5).”

[6] = tested on: control Drosophila S2 cells; assay: Cytokinesis / multinucleation assay in control Drosophila S2 cells; assay type: cell-based; settings: 50 μM, 24 hours
Experimental: (§5) Drosophila S2 cells were grown in Schneider's Drosophila medium complemented with FBS, Penicillin and Streptomycin (Invitrogen). […] Cells were fixed and labelled for F-Actin (red) and DNA (blue). Images are shown in FIGS. 1(a) to 1(c) in which stars mark multinucleated cells. The histogram of FIG. 2 represents the percentage of multinucleated cells quantified following the indicated treatments. Each P-values were calculated against dOCRL dsRNA treated cells.

[7] = tested on: dOCRL dsRNA treated Drosophila S2 cells; assay: Cytokinesis / multinucleation assay in dOCRL dsRNA treated Drosophila S2 cells; assay type: cell-based; settings: dOCRL depleted S2 cells, 50 μM, 24 hours
Experimental: as §5

Row | Structure (SMILES) | rescue of endocytosis in the renal tubule (pronephric uptake of tracer) [1] | effect on timing of abscission [2] | correction of abscission delay [3] | effect on renal (pronephric) uptake of tracer [4] | correction of abscission delay [5] | effect on cytokinesis (multinucleated cells) [6] | effect on cytokinesis failure / multi-nucleation rate [7]
1 | Cc1cc(C)c(S(=O)(=O)Nc2cccc(C(F)(F)F)c2)c(C)c1 [m-3M3FBS, 2,4,6-trimethyl-N-(m-3-trifluoromethylphenyl) benzene sulfonamide] | efficiently rescued endocytosis | not affected | showed correction of the abscission delay | no effect upon renal uptake | fully corrected | did not perturb cytokinesis | prevented cytokinesis failure
2 | Cc1cc(C)c(S(=O)(=O)Nc2ccccc2C(F)(F)F)c(C)c1 [o-3M3FBS, reference compound] | no effect | – | no significant effect on abscission | no effect | not corrected | – | did not significantly modify the multi-nucleation rate
